Data published in US20130012466A1 (priority 2006, published 2013).
Where two headings read alike, the source gives them in different places.

Legend:
A549 = assay: Cytotoxicity assay (cell titer-glo and calcein AM), A549
NCI-H460 = assay: Cytotoxicity assay (cell titer-glo and calcein AM), NCI-H460
SF-268 = assay: Cytotoxicity assay (cell titer-glo and calcein AM), SF-268
SK-OV-3 = assay: Cytotoxicity assay (cell titer-glo and calcein AM), SK-OV-3
Hep3B = assay: Cytotoxicity assay (cell titer-glo and calcein AM), Hep3B
tubulin = assay: In vitro tubulin polymerization assay (fluorescence-based); assay type: biochemical; details: for effect on tubulin polymerization / microtubules: tested in duplicate on at least two days
Experimental: In vitro tubulin polymerization assays were performed using a fluorescence-based assay (Cytoskeleton, Inc., Denver, Colo.). […] Aliquots (5 μL) of each compound or control were added to a 96-well black half area plate (Corning Costar, Inc.) pre-warmed to 37° C. Cold tubulin reaction mix (50 μL 1× Buffer—80 mM piperazine-N,N′-bis[2-ethanesulfonic acid]sequisodium salt; 2.0 mM magnesium chloride; 0.5 mM ethylene glycol-bis[β-amino-ethyl ether) N,N,N′,N′-tetra-acetic acid, pH 6.9, 10 μM fluorescent reporter; 20% tubulin glycerol buffer—80 mM piperazine-N,N′-bis[2-ethanesulfonic acid] sequisodium salt; 2.0 mM magnesium chloride; 0.5 mM ethylene glycol-bis(β-amino-ethyl ether) N,N,N′,N′-tetra-acetic acid, 60% v/v glycerol, pH 6.9, 1 mM GTP; and 2 mg mL^−1 tubulin stock) was added to each of the compounds. […] Polymerization curves were generated in Excel after background correction and the effects of test compounds were compared to controls.
Library members that accelerated the rate of tubulin polymerization were deemed microtubule stabilizers, whereas compounds that decelerated the rate of tubulin polymerization were deemed microtubule de-stabilizers.

[1] = system: mouse mammary normal epithelial control cell line; assay: Cytotoxicity assay, normal control cell line
MCF7 = assay: Cytotoxicity assay (cell titer-glo and calcein AM), MCF7
ADR-RES = assay: Cytotoxicity assay (cell titer-glo and calcein AM), ADR-RES; details: NCI/ADR RES, % error in parentheses
Du145 = assay: Cytotoxicity assay (cell titer-glo and calcein AM), Du145
A549 cells [2] = assay: Drug combination study with colchicine (Chou-Talalay combination index); details: for plus colchicine, mean CI / plus colchicine, median CI: combination index, colchicine held at IC10, A549 cells
A549 cells [3] = assay: Drug combination study with paclitaxel (Chou-Talalay combination index); details: for synergy (paclitaxel): combination index class, combination with paclitaxel, Chou-Talalay method; for plus paclitaxel, mean CI / plus paclitaxel, median CI: combination index, paclitaxel held at IC10, A549 cells;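 for all read-outs here: combination indexes averaged only over points where fraction affected exceeded 0.2, with each synergy experiment repeated at least three times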
[4] = read-out: Cytotoxicity IC50, A549, CTG, A549, CTG (cell titer-glo) readout, % error in parentheses
[5] = read-out: Cytotoxicity IC50, A549, calcein, A549, calcein AM readout, % error in parentheses
[6] = read-out: Cytotoxicity IC50, NCI-H460, CTG, NCI-H460, CTG (cell titer-glo) readout, % error in parentheses
[7] = read-out: Cytotoxicity IC50, NCI-H460, calcein, NCI-H460, calcein AM readout, % error in parentheses
[8] = read-out: Cytotoxicity IC50, SF-268, CTG, SF-268, CTG (cell titer-glo) readout, % error in parentheses
[9] = read-out: Cytotoxicity IC50, SF-268, calcein, SF-268, calcein AM readout, % error in parentheses
[10] = read-out: Cytotoxicity IC50, SK-OV-3, CTG, SK-OV-3, CTG (cell titer-glo) readout, % error in parentheses
[11] = read-out: Cytotoxicity IC50, SK-OV-3, calcein, SK-OV-3, calcein AM readout, % error in parentheses
[12] = read-out: Cytotoxicity IC50, Hep 3B, CTG, Hep 3B, CTG (cell titer-glo) readout, % error in parentheses
[13] = read-out: Cytotoxicity IC50, Hep 3B, calcein, Hep 3B, calcein AM readout, % error in parentheses
[14] = read-out: Cytotoxicity IC50, NmuMG, CTG, CTG (cell titer-glo) readout, % error in parentheses
[15] = read-out: Cytotoxicity IC50, NmuMG, calcein, calcein AM readout, % error in parentheses
[16] = read-out: Cytotoxicity IC50, MCF7, CTG, CTG (cell titer-glo) readout, % error in parentheses
[17] = read-out: Cytotoxicity IC50, MCF7, calcein, calcein AM readout, % error in parentheses
[18] = read-out: Cytotoxicity IC50, NCI/ADR RES, CTG, CTG (cell titer-glo) readout
[19] = read-out: Cytotoxicity IC50, NCI/ADR RES, calcein, calcein AM readout
[20] = read-out: Cytotoxicity IC50, Du145, CTG, Du145, CTG (cell titer-glo) readout, % error in parentheses
[21] = read-out: Cytotoxicity IC50, Du145, calcein, Du145, calcein AM readout, % error in parentheses
[22] = drug combination, A549 cells, Chou-Talalay

## 6-deoxy-6-acyl-D-galactoside [Col56]
A549; [4]
  IC50: 1.91 µM
A549; [5]
  IC50: 2.09 µM
NCI-H460; [6]
  IC50: 1.55 µM
NCI-H460; [7]
  IC50: 1.09 µM
SF-268; [8]
  IC50: 1.76 µM
SF-268; [9]
  IC50: > 1 µM
SK-OV-3; [10]
  IC50: 0.901 µM
SK-OV-3; [11]
  IC50: 1.18 µM
Hep3B; [12]
  IC50: 1.48 µM
Hep3B; [13]
  IC50: 2.23 µM
tubulin
  tubulin polymeriz.: no effect
  effect on tubulin polymerization / microtubules: no apparent effect
[1]; [14]
  IC50: 1.52 µM
[1]; [15]
  IC50: 1.49 µM
MCF7; [16]
  IC50: 3.13 µM
MCF7; [17]
  IC50: 0.812 µM
ADR-RES; [18]
  IC50: 1.16 µM
ADR-RES; [19]
  IC50: 0.994 µM
Du145; [20]
  IC50: 1.15 µM
Du145; [21]
  IC50: 1.09 µM

## 19-(N-METHOXYAMINO-N-22-DEOXY-D-RIBOSYL)COLCHICINE [Col21]
A549 cells [2]
  plus colchicine, mean CI: 1.01
  plus colchicine, median CI: 0.64
A549 cells [3]
  synergy (paclitaxel): — (moderate antagonism, Cl 1.2-1.45)
  plus paclitaxel, mean CI: 4.96
  plus paclitaxel, median CI: 2.50

## COc1cc2c(c(OC)c1OC)-c1ccc(OC)c(=O)cc1[C@@H](NC(=O)CN(OC)[C@@H]1O[C@H](C(=O)O)[C@H](O)[C@H](O)[C@H]1O)CC2 [Col18, D-Galacturonoside]
A549; [4]
  IC50: 1.1 µM
A549; [5]
  IC50: 1.07 µM
NCI-H460; [6]
  IC50: 0.993 µM
NCI-H460; [7]
  IC50: 1.13 µM
SF-268; [8]
  IC50: 0.834 µM
SF-268; [9]
  IC50: 1.11 µM
SK-OV-3; [10]
  IC50: 1.08 µM
SK-OV-3; [11]
  IC50: 1.07 µM
Hep3B; [12]
  IC50: 2 µM
Hep3B; [13]
  IC50: 2.27 µM
tubulin
  effect on tubulin polymerization / microtubules: no effect
[1]; [14]
  IC50: 2.09 µM
[1]; [15]
  IC50: 2.62 µM
MCF7; [16]
  IC50: 1.16 µM
MCF7; [17]
  IC50: 1.49 µM
ADR-RES; [18]
  IC50: 1.11 µM
ADR-RES; [19]
  IC50: 0.828 µM
Du145; [20]
  IC50: 1.12 µM
Du145; [21]
  IC50: 1.19 µM

## COc1cc2c(c(OC)c1OC)-c1ccc(OC)c(=O)cc1[C@@H](NC(=O)CN(OC)[C@@H]1O[C@H](CO)[C@@H](O[C@H]3O[C@H](CO)[C@@H](O)[C@H](O)[C@H]3O)[C@H](O)[C@H]1O)CC2 [Col38, D-maltoside]
A549; [4]
  IC50: 0.244 µM
A549; [5]
  IC50: 0.508 µM
NCI-H460; [6]
  IC50: 0.112 µM
NCI-H460; [7]
  IC50: 0.487 µM
SF-268; [8]
  IC50: 0.16 µM
SF-268; [9]
  IC50: 0.319 µM
SK-OV-3; [10]
  IC50: 0.252 µM
SK-OV-3; [11]
  IC50: 0.316 µM
Hep3B; [12]
  IC50: 0.229 µM
Hep3B; [13]
  IC50: 1.39 µM
tubulin
  effect on tubulin polymerization / microtubules: destabilized microtubules
[1]; [14]
  IC50: 0.976 µM
[1]; [15]
  IC50: 0.875 µM
MCF7; [16]
  IC50: 0.291 µM
ADR-RES; [18]
  IC50: 0.199 µM
ADR-RES; [19]
  IC50: 0.173 µM
Du145; [20]
  IC50: 0.215 µM
Du145; [21]
  IC50: 0.342 µM

## COc1cc2c(c(OC)c1OC)-c1ccc(OC)c(=O)cc1[C@@H](NC(=O)CN(OC)[C@@H]1O[C@H](CO)[C@@H](N=[N+]=[N-])[C@H](O)[C@H]1O)CC2 [Col44, 4-deoxy-4-azido-D-glucoside]
A549; [4]
  IC50: 0.315 µM
A549; [5]
  IC50: 0.649 µM
NCI-H460; [6]
  IC50: > 1 µM
NCI-H460; [7]
  IC50: > 1 µM
SF-268; [8]
  IC50: 0.229 µM
SF-268; [9]
  IC50: 0.412 µM
SK-OV-3; [10]
  IC50: > 1 µM
SK-OV-3; [11]
  IC50: > 1 µM
Hep3B; [12]
  IC50: 0.453 µM
Hep3B; [13]
  IC50: 0.671 µM
tubulin
  effect on tubulin polymerization / microtubules: destabilized microtubules
[1]; [14]
  IC50: 1.43 µM
[1]; [15]
  IC50: 3.66 µM
MCF7; [16]
  IC50: 0.596 µM
MCF7; [17]
  IC50: 0.676 µM
ADR-RES; [18]
  IC50: > 1 µM
ADR-RES; [19]
  IC50: > 1 µM
Du145; [20]
  IC50: > 1 µM
Du145; [21]
  IC50: > 1 µM

## COc1cc2c(c(OC)c1OC)-c1ccc(OC)c(=O)cc1[C@@H](N)CC2 [Col 6, deacetyl colchicine]
A549 cells [2]
  plus colchicine, mean CI: 2.32
  plus colchicine, median CI: 1.96
A549 cells [2]; [22]
  interaction with colchicine: antagonism
A549 cells [3]
  plus paclitaxel, mean CI: 0.57
  plus paclitaxel, median CI: 0.20
A549 cells [3]; [22]
  interaction with paclitaxel/taxol: synergy

## COc1cc2c(c(OC)c1OC)-c1ccc(OC)c(=O)cc1[C@@H](NC(C)=O)CC2 [colchicine, reference compound]
A549 cells [3]
  synergy (paclitaxel): ++ (moderate synergism, Cl 0.7-0.85)
  plus paclitaxel, mean CI: 0.77
  plus paclitaxel, median CI: 0.18

## COc1cccc2c1C(=O)c1c(O)c3c(c(O)c1C2=O)C[C@@](O)(C(=O)CO)C[C@@H]3O[C@H]1C[C@H](N)[C@H](O)[C@H](C)O1 [doxorubicin, reference compound]
A549; Homo sapiens, A549, read-out: IC50 (A549)
  IC50: 0.77 µM
NCI-H460; Homo sapiens, NCI-H460, read-out: IC50 (NCI-H460)
  IC50: 1 µM
SF-268; Homo sapiens, SF-268, read-out: IC50 (SF-268)
  IC50: 0.385 µM
SK-OV-3; Homo sapiens, SK-OV-3, read-out: IC50 (SK-OV-3)
  IC50: 0.621 µM
Hep3B; Homo sapiens, Hep3B, read-out: IC50 (Hep3B)
  IC50: 0.268 µM
tubulin
  tubulin polymeriz.: no effect
  effect on tubulin polymerization / microtubules: no apparent effect
Du145; Homo sapiens, DU-145, read-out: IC50 (Du145)
  IC50: 0.339 µM

## novioside [Col29]
A549; [4]
  IC50: 1.86 µM
A549; [5]
  IC50: 2.18 µM
NCI-H460; [6]
  IC50: 0.98 µM
NCI-H460; [7]
  IC50: 3.37 µM
SF-268; [8]
  IC50: 1.12 µM
SF-268; [9]
  IC50: 1.28 µM
SK-OV-3; [10]
  IC50: 1.03 µM
SK-OV-3; [11]
  IC50: 4.35 µM
Hep3B; [12]
  IC50: 2.47 µM
Hep3B; [13]
  IC50: 2.94 µM
[1]; [14]
  IC50: > 5 µM
[1]; [15]
  IC50: > 5 µM
MCF7; [16]
  IC50: 0.61 µM
MCF7; [17]
  IC50: 0.3 µM
ADR-RES; [18]
  IC50: 1.56 µM
ADR-RES; [19]
  IC50: 1.18 µM
Du145; [20]
  IC50: 1.24 µM
Du145; [21]
  IC50: 0.55 µM
